Measured values reported in ChEMBL document CHEMBL3045812, “Synthesis of fatty acid Schiff base esters as potential antimicrobial and chemotherapeutic agents” (Med Chem Res, 2013).
pIC50: −log10 of the molar value. ≈ marks a conversion by molar mass, not a printed value. Calls of active or inactive are those of the source. The calls are words filed in the database; no cut-off is given here.

Legend:
N2a = experiment: Cytotoxicity against Mus musculus (mouse) Neuro2a cells by tetrazolium-reduction assay; format: functional, cell-based
Candida albicans [1] = experiment: Antifungal activity against Candida albicans MTCC 227 at 1.4 to 300 ug/ml after 24 hr by microtiter broth dilution method; format: functional, organism-based
Candida albicans [2] = experiment: Antifungal activity against Candida albicans MTCC 7315 at 1.4 to 300 ug/ml after 24 hr by microtiter broth dilution method; format: functional, organism-based
Bacillus subtilis = experiment: Antibacterial activity against Bacillus subtilis MTCC 121 after 24 hr by microtiter broth dilution method; format: functional
HepG2 = experiment: Cytotoxicity against Homo sapiens (human) HepG2 cells by tetrazolium-reduction assay; format: functional, cell-based
MDA-MB-231 = experiment: Cytotoxicity against Homo sapiens (human) MDA-MB-231 cells by tetrazolium-reduction assay; format: functional, cell-based
Staphylococcus aureus [3] = experiment: Antibacterial activity against Staphylococcus aureus MTCC 96 after 24 hr by microtiter broth dilution method; format: functional
Candida parapsilosis [4] = experiment: Antifungal activity against Candida parapsilosis MTCC 1744 at 1.4 to 300 ug/ml after 24 hr by microtiter broth dilution method; format: functional, organism-based
Candida albicans [5] = experiment: Antifungal activity against Candida albicans MTCC 3018 at 1.4 to 300 ug/ml after 24 hr by microtiter broth dilution method; format: functional, organism-based
Candida albicans [6] = experiment: Antifungal activity against Candida albicans MTCC 3958 at 1.4 to 300 ug/ml after 24 hr by microtiter broth dilution method; format: functional, organism-based
A549 = experiment: Cytotoxicity against Homo sapiens (human) A549 cells by tetrazolium-reduction assay; format: functional, cell-based
Candida albicans [7] = experiment: Antifungal activity against Candida albicans MTCC 183 at 1.4 to 300 ug/ml after 24 hr by microtiter broth dilution method; format: functional, organism-based
[Candida] aaseri [8] = Antifungal activity against Candida aaseri MTCC 1962 at 1.4 to 300 ug/ml after 24 hr by microtiter broth dilution method; format: functional, organism-based
Candida albicans [9] = experiment: Antifungal activity against Candida albicans MTCC 3017 at 1.4 to 300 ug/ml after 24 hr by microtiter broth dilution method; format: functional, organism-based
Nakaseomyces glabratus [10] = experiment: Antifungal activity against Candida glabrata MTCC 3019 at 1.4 to 300 ug/ml after 24 hr by microtiter broth dilution method; format: functional, organism-based
MCF7 = experiment: Cytotoxicity against Homo sapiens (human) MCF7 cells by tetrazolium-reduction assay; format: functional, cell-based; settings: for pIC50: Homo sapiens, MCF7, read-out: IC50; for IC50: mcf7
Pseudomonas aeruginosa = experiment: Antibacterial activity against Pseudomonas aeruginosa MTCC 2453 after 24 hr by microtiter broth dilution method; format: functional
HeLa = experiment: Cytotoxicity against Homo sapiens (human) HeLa cells by tetrazolium-reduction assay; format: functional, cell-based
Candida albicans [11] = experiment: Antifungal activity against Candida albicans MTCC 1637 at 1.4 to 300 ug/ml after 24 hr by microtiter broth dilution method; format: functional, organism-based
Candida albicans [12] = experiment: Antifungal activity against Candida albicans MTCC 854 at 1.4 to 300 ug/ml after 24 hr by microtiter broth dilution method; format: functional, organism-based
Staphylococcus aureus [13] = experiment: Antibacterial activity against Staphylococcus aureus MLS16 MTCC 2940 after 24 hr by microtiter broth dilution method; format: functional
Raoultella planticola = experiment: Antibacterial activity against Raoultella planticola MTCC 530 at 1.4 to 300 ug/ml after 24 hr by microtiter broth dilution method; format: functional, organism-based
Micrococcus luteus = experiment: Antibacterial activity against Micrococcus luteus MTCC 2470 at 1.4 to 300 ug/ml after 24 hr by microtiter broth dilution method; format: functional, organism-based
Escherichia coli = experiment: Antibacterial activity against Escherichia coli MTCC 739 at 1.4 to 300 ug/ml after 24 hr by microtiter broth dilution method; format: functional, organism-based
Candida albicans [14] = experiment: Antifungal activity against Candida albicans MTCC 227 after 24 hr by microtiter broth dilution method; format: functional; settings: MTCC 227, 24 h
Candida albicans [15] = experiment: Antifungal activity against Candida albicans MTCC 183 after 24 hr by microtiter broth dilution method; format: functional; settings: MTCC 183, 24 h
[Candida] aaseri [16] = Antifungal activity against Candida aaseri MTCC 1962 after 24 hr by microtiter broth dilution method; format: functional; settings: Yamadazyma aaseri, MTCC 1962, 24 h
Candida parapsilosis [17] = experiment: Antifungal activity against Candida parapsilosis MTCC 1744 after 24 hr by microtiter broth dilution method; format: functional
Pichia kudriavzevii = experiment: Antifungal activity against Pichia kudriavzevii MTCC 3020 after 24 hr by microtiter broth dilution method; format: functional; settings: MTCC 3020, 24 h
Candida albicans [18] = experiment: Antifungal activity against Candida albicans MTCC 854 after 24 hr by microtiter broth dilution method; format: functional
Nakaseomyces glabratus [19] = experiment: Antifungal activity against Candida glabrata MTCC 3019 after 24 hr by microtiter broth dilution method; format: functional
Candida albicans [20] = experiment: Antifungal activity against Candida albicans MTCC 3018 after 24 hr by microtiter broth dilution method; format: functional; settings: MTCC 3018, 24 h
Candida albicans [21] = experiment: Antifungal activity against Candida albicans MTCC 3017 after 24 hr by microtiter broth dilution method; format: functional
Candida albicans [22] = experiment: Antifungal activity against Candida albicans MTCC 1637 after 24 hr by microtiter broth dilution method; format: functional
Candida albicans [23] = experiment: Antifungal activity against Candida albicans MTCC 7315 after 24 hr by microtiter broth dilution method; format: functional; settings: MTCC 7315, 24 h
Candida albicans [24] = experiment: Antifungal activity against Candida albicans MTCC 3958 after 24 hr by microtiter broth dilution method; format: functional; settings: MTCC 3958, 24 h
Pichia sporocuriosa = experiment: Antifungal activity against Issatchenkia hanoiensis MTCC 4755 after 24 hr by microtiter broth dilution method; format: functional; settings: MTCC 4755, 24 h

| SMILES | MIC (Bacillus subtilis) | MIC (Staphylococcus aureus [3]; MTCC 96, 24 h) [µg/mL] | Activity (N2a) | Activity (Candida albicans [1]) | Activity (Candida albicans [2]) | Activity (HepG2) | pIC50 (MDA-MB-231) | Activity (Candida parapsilosis [4]) | Activity (Candida albicans [5]) | Activity (Candida albicans [6]) | Activity (A549) | Activity (Candida albicans [7]) | Activity ([Candida] aaseri [8]) | Activity (Candida albicans [9]) | Activity (Nakaseomyces glabratus [10]) | Activity (HeLa) | Activity (Candida albicans [11]) | Activity (Raoultella planticola) | Activity (Micrococcus luteus) | Activity (Escherichia coli) | other results |
| --- | --- | --- | --- | --- | --- | --- | --- | --- | --- | --- | --- | --- | --- | --- | --- | --- | --- | --- | --- | --- | --- |
| Oc1ccc(/C=N/Cc2cccnc2)cc1 | inactive | 75 (≈ 353 µM) | inactive | inactive | inactive | inactive | 4.77 | inactive | inactive | inactive | inactive | inactive | inactive | inactive | inactive | inactive | inactive |  |  |  | pIC50 (MCF7): 4.92; MIC (Pseudomonas aeruginosa): inactive; Activity (Candida albicans [12]): inactive; MIC (Staphylococcus aureus [13]): inactive |
| CCCCCCC(=O)Oc1ccc(/C=N/Cc2cccnc2)cc1 |  | 37.5 (≈ 116 µM) | inactive |  |  | inactive | 4.83 |  |  |  | inactive |  |  |  |  | inactive |  | inactive | inactive | inactive | MIC (Candida albicans [14]): 75 µg/mL (≈ 231 µM); MIC (Candida albicans [15]): 300 µg/mL (≈ 925 µM); MIC ([Candida] aaseri [16]): 75 µg/mL (≈ 231 µM); MIC (Bacillus subtilis; MTCC 121, 24 h): 300 µg/mL (≈ 925 µM); MIC (Candida parapsilosis [17]; Lodderomyces parapsilosis, MTCC 1744, 24 h): 300 µg/mL (≈ 925 µM); MIC (Pichia kudriavzevii): 75 µg/mL (≈ 231 µM); MIC (Candida albicans [18]; MTCC 854, 24 h): 300 µg/mL (≈ 925 µM); MIC (Nakaseomyces glabratus [19]): inactive; MIC (Candida albicans [20]): 75 µg/mL (≈ 231 µM); MIC (Candida albicans [21]): inactive; IC50 (MCF7): Not Active; MIC (Candida albicans [22]; MTCC 1637, 24 h): 150 µg/mL (≈ 462 µM); MIC (Pseudomonas aeruginosa; MTCC 2453, 24 h): 37.5 µg/mL (≈ 116 µM); MIC (Candida albicans [23]): 150 µg/mL (≈ 462 µM); MIC (Candida albicans [24]): 150 µg/mL (≈ 462 µM); MIC (Pichia sporocuriosa): 75 µg/mL (≈ 231 µM); MIC (Staphylococcus aureus [13]; MLS16 MTCC 2940, 24 h): 150 µg/mL (≈ 462 µM) |
| CCCCCCCCCCCC(=O)Oc1ccc(/C=N/Cc2cccnc2)cc1 | inactive | 150 (≈ 380 µM) | inactive | inactive | inactive | inactive | 4.72 | inactive | inactive | inactive | inactive | inactive | inactive | inactive | inactive | inactive | inactive | inactive | inactive | inactive | pIC50 (MCF7): 4.75; MIC (Pseudomonas aeruginosa): inactive; Activity (Candida albicans [12]): inactive; MIC (Staphylococcus aureus [13]; MLS16 MTCC 2940, 24 h): 150 µg/mL (≈ 380 µM) |
| CCCCCCCC(=O)Oc1ccc(/C=N/Cc2cccnc2)cc1 |  | 37.5 (≈ 111 µM) | inactive |  |  | inactive | 4.80 |  |  |  | inactive |  |  |  |  | inactive |  | inactive | inactive | inactive | MIC (Candida albicans [14]): 150 µg/mL (≈ 443 µM); MIC (Candida albicans [15]): 150 µg/mL (≈ 443 µM); MIC ([Candida] aaseri [16]): 300 µg/mL (≈ 886 µM); MIC (Bacillus subtilis; MTCC 121, 24 h): 300 µg/mL (≈ 886 µM); MIC (Candida parapsilosis [17]): inactive; MIC (Pichia kudriavzevii): 150 µg/mL (≈ 443 µM); MIC (Candida albicans [18]): inactive; MIC (Nakaseomyces glabratus [19]; MTCC 3019, 24 h): 150 µg/mL (≈ 443 µM); MIC (Candida albicans [20]): 300 µg/mL (≈ 886 µM); MIC (Candida albicans [21]): inactive; pIC50 (MCF7): 4.92; MIC (Candida albicans [22]): inactive; MIC (Pseudomonas aeruginosa; MTCC 2453, 24 h): 300 µg/mL (≈ 886 µM); MIC (Candida albicans [23]): 150 µg/mL (≈ 443 µM); MIC (Candida albicans [24]): 150 µg/mL (≈ 443 µM); MIC (Pichia sporocuriosa): 300 µg/mL (≈ 886 µM); MIC (Staphylococcus aureus [13]; MLS16 MTCC 2940, 24 h): 300 µg/mL (≈ 886 µM) |

Further lines, with some results ahead:

| MIC (Bacillus subtilis) | MIC (Staphylococcus aureus [3]; MTCC 96, 24 h) [µg/mL] | SMILES | Activity (N2a) | Activity (Candida albicans [1]) | Activity (Candida albicans [2]) | Activity (HepG2) | pIC50 (MDA-MB-231) | Activity (Candida parapsilosis [4]) | Activity (Candida albicans [5]) | Activity (Candida albicans [6]) | Activity (A549) | Activity (Candida albicans [7]) | Activity ([Candida] aaseri [8]) | Activity (Candida albicans [9]) | Activity (Nakaseomyces glabratus [10]) | Activity (HeLa) | Activity (Candida albicans [11]) | Activity (Raoultella planticola) | Activity (Micrococcus luteus) | Activity (Escherichia coli) | other results |
| --- | --- | --- | --- | --- | --- | --- | --- | --- | --- | --- | --- | --- | --- | --- | --- | --- | --- | --- | --- | --- | --- |
| inactive | 300 (≈ 627 µM) | CCCCCCCCCCCCCCCCCC(=O)Oc1ccc(/C=N/Cc2cccnc2)cc1 | inactive | inactive | inactive | inactive | 4.94 | inactive | inactive | inactive | inactive | inactive | inactive | inactive | inactive | inactive | inactive | inactive | inactive | inactive | IC50 (MCF7): Not Active; MIC (Pseudomonas aeruginosa; MTCC 2453, 24 h): 300 µg/mL (≈ 627 µM); Activity (Candida albicans [12]): inactive; MIC (Staphylococcus aureus [13]; MLS16 MTCC 2940, 24 h): 300 µg/mL (≈ 627 µM) |
| inactive |  | CCCCCCCCCCCCCCCC(=O)Oc1ccc(/C=N/Cc2cccnc2)cc1 | inactive | inactive | inactive | inactive |  | inactive | inactive | inactive | inactive | inactive | inactive | inactive | inactive | inactive | inactive | inactive | inactive | inactive | MIC (Staphylococcus aureus [3]): inactive; MIC (Pseudomonas aeruginosa): inactive; Activity (Candida albicans [12]): inactive; MIC (Staphylococcus aureus [13]): inactive |
